Laboratory results taken from patent US10800806B2, “Sterol derivatives and use thereof for treating diseases involving transformed astrocyte cells or for treating malignant haemopathies” (BETA INNOV, priority 2012, dated 2020).

Tests used:
C6 cells = test: Anti-GBM activity in vitro on cultures of C6 cells (cell counting, protein assay, MTT test); type: cell-based, rat; conditions: 15 μm, ethanol 3%
Experimental: Plastic flat-bottomed 96-well culture plates (NUNC, USA) treated for cell culture (Sigma-Aldrich, ref. 114754) are used; 1500 cells are seeded per well in 200 μl of culture medium. At the time of treatment, 100 μl of pure culture medium, 100 μl of culture medium containing ethanol, or liposomes, or 100 μl of culture medium containing the active ingredients are added per well; the final volume of the culture medium, after treatment, is therefore 300 μl for all the wells.
The cultures are incubated in a Sanyo incubator (Japan, model MCO-19AlC-UV) at 37° C. and in an atmosphere with 5% CO2 and saturated in humidity. The cells are observed with an inverted microscope (Nikon Eclipse TS100, Japan) and the photographs are taken with a camera (DIGITAL camera with c-mount; LABOVER, France). The culture hood is a microbiological safety hood MSC (thermo SCIENTIFIC, model HERA SAFE KS12, France).
The type C6 cell line was obtained by Benda et al. (16) from rat brain tumours, induced by N-methylnitrosourea. This cell type is used as “in vitro” and “in vivo” model for evaluating anti-GBM potential. The lines originate from the former Strasbourg Neurochemistry Centre (U44 INSERM and UPR 416 CNRS).
The culture medium is made up of 70% Minimum Essential Medium (MEM; (Fischer Scientifique, ref. 61100) and 30% Hanks solution (SIGMA, ref. H 9269). The following are added to the culture medium: foetal calf serum (FCS; Fischer Scientifique, ref. 10108165) at a final concentration of 5% (v/v), an antibiotic solution of ciprofloxacin hydrochloride 5 μg/mL (EUROMEDEX, ref. UC5074) and a solution of Fungizone 2.5 μg/mL (INVITROGEN, ref. 15290-026). The doubling time of this cell type is 17 h. • GBM lines of human origin
The active ingredients are either dissolved in absolute ethanol (AnalaR, NORMAPUR, VWR, France) or in the form of a liposomal solution, such as 10 μl of the stock solutions diluted in 990 μl and then added to the culture wells (200 μl of culture medium) giving concentrations of 30.0, 15.0, 7.5 and 3.3 μM (final volume of culture medium per well BI-GBM: 300 μl).
When the active ingredients are in ethanolic solution, the culture medium contains […] ethanol (v/v).
A method of cell counting on photographs was used.
For example, in the case of the cultures in 96-well plates and as a function of the magnification of the microscope used (objectives×10 or ×20, oculars×10), a photograph taken represents a field of view with a diameter equal to 1/5 of the diameter of a well. Therefore the total number of cells in a well is equal to […] the number of cells per photograph. This technique was compared with a standard technique (trypsinization of the cell layer, centrifugation of the cells, suspension of the cells in physiological saline solution and counting with a THOMA cell) in the case of the C6 cells. The results obtained are identical for both methods.
The culture medium is withdrawn from each well and 50 μl of Laemmli buffer (0.1 ml of Tris, 0.8 ml of glycerol, 1.6 mL of 10% SDS, 8 ml q.s.f ultrapure water) is added per well.
In control wells, 10 μl of a solution of bovine serum albumin range (crystallized BSA, Sigma) is added; the range is from 0 to 20 μg per well. The wells are then supplemented with 40 μl of Laemmli buffer. Finally, 200 μl of solution of BCA reagent is added (Pierce, USA; BCA Protein Assay Kit; ThemoScientific, France).
The culture plates are incubated for 30 min at 37° C. The optical density for each well is read and quantified by a plate reader (BioRad, USA, iMark Microplate reader 12222) at 570 nm.
This test makes it possible to detect the cellular respiration, especially the mitochondrial respiration. The stock solution of tetrazolium salt MTT (3-(4,5-dimethylthiazol-2-yl)-2,5-diphenyl tetrazolium bromide, Sigma-Aldrich, USA, ref. M5655) is prepared with 10 mg of MIT/ml of PBS buffer (phosphate-buffered saline, SIGMA, ref. D 1408). […]

[1] = test system: liver cancer cells (ATCC-HB-8065); test: Activity in vitro on liver cancer cells; type: cell-based, human; conditions: 30 μM, ethanolic form
Experimental: They were obtained from ATCC (ref. ATCC-HB-8065). The culture medium consists of MEM (Gibco, USA; ref. 51200) and 10% (v/v) FCS. The doubling time is 60 h. • Prostate cancer cells
(§1) The cancer cells used are from liver (ref. ATCC-HB-8065), prostate (ref. ATCC-HTB-81), breast (ref. ATCC-HTB-19) cancer cells, and from colon cancer cells (ECACC-HT29/219) of human origin, mentioned above.

[2] = test system: prostate cancer cells (ATCC-HTB-81); test: Activity in vitro on prostate cancer cells; type: cell-based, human; conditions: 30 μM, ethanolic form
Experimental: They were obtained from ATCC (ref. ATCC-HTB-81). The culture medium is the same as that used for the liver cancer lines. The doubling time is 60 h. • Breast cancer cells
as §1

[3] = test system: LDH from Lactobacillus leichmannii (LL); test: Inhibition of LDH activity, in gel assay after IEF; type: biochemical; conditions: ethanolic form, 36 mM
Experimental: The measurements of the activity of LDH and of its inhibition by a routine inhibitor, oxamate (23), were validated by the spectrometric method (24) using the purified LDH of Lactobacillus leichmannii (LL) (Sigma) as standard.
Next, the LDH activities and their inhibition were detected by the “in gel assay” technique (25). The source of activity used was LDH LL and LDH, partially purified, from human GBM lines U87-MG (LDH GBM). “In gel assay” detection was carried out after isoelectric focusing (IEF) on electrophoresis gels of the LDH LL and LDH GBM samples.
The mini-gels of 7.5 (T %) and of 2.6 (C %) are poured into Pi with the Ampholines (BioRad) making it possible to form a pH gradient in the range from 7 to 5 after pre-focusing in a cold chamber. The containers used are of the mini-protean 3 type (BioRad). […]
The LDH activity is detected by the lactate/NAD/MTT/phenazine methosulphate system (formation of a precipitate of the formazan type in the IEF gel); this system is described in reference (25). […]
The activity of LDH is detected by the “in gel assay” technique on IEF electrophoresis gels, which were described in the section “A/ PROTOCOLS 6)” (25); the precision of this technique is 0.2 unit of pH. The activity of LDH is detected by a dark blue precipitate, of the formazan type, the site where LDH activity is located.

SMILES	Live residual cells (C6 cells) [%]	effect on cellular division and respiration [1]	effect on cellular division and respiration [2]	inhibition of the enzymatic activity of LDH LL [3]
CC(C)CCCC(C)C1CCC2C3C(OC(=O)OC(C)(C)C)C=C4CC(OC(=O)C5COC(C)(C)O5)CCC4(C)C3CCC12C (stereo not shown) [Molecule 2.a, 7-((tert-butoxycarbonyl)oxy)-10,13-dimethyl-17-(6-methylheptan-2-yl)-2,3,4,7,8,9,10,11,12,13,14,15,16,17-tetradecahydro-1H-cyclopenta[a]phenanthren-3-yl 2,2-dimethyl-1,3-dioxolane-4-carboxylate]	100			
CC(=O)OC1C=C2CC(OC(=O)C3COC(C)(C)O3)CCC2(C)C2CCC3(C)C(C(C)CCCC(C)C)CCC3C12 (stereo not shown) [Molecule 2.b, 7-acetoxy-10,13-dimethyl-17-(6-methylheptan-2-yl)-2,3,4,7,8,9,10,11,12,13,14,15,16,17-tetradecahydro-1H-cyclopenta[a]phenanthren-3-yl 2,2-dimethyl-1,3-dioxolane-4-carboxylate]		no effect	no effect	almost completely
